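Step 1: Grow cells in 96-well plates. Step 2: Expose to compound for 48 hours at 5 concentrations. Step 3: Interpolate endpoints linearly; if unreached, use highest concentration. At the GI50, growth is halved. Definition used: TGI = concentration required for complete inhibition of growth.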
What was measured:
Assay in all cases: NCI tumour cell line growth inhibition, 48 h
SF-539 CNS = system: SF-539 CNS
UACC-257 melanoma = system: UACC-257 melanoma
A498 renal = system: A498 renal
SK-MEL-5 melanoma = system: SK-MEL-5 melanoma
EKVX NSCLC = system: EKVX NSCLC
CAKI-1 renal = system: CAKI-1 renal
LOX IMVI melanoma = system: LOX IMVI melanoma
IGROV1 ovarian = system: IGROV1 ovarian
UACC-62 melanoma = system: UACC-62 melanoma
PC-3 prostate = system: PC-3 prostate

| SMILES | TGI (SF-539 CNS) | TGI (UACC-257 melanoma) | TGI (A498 renal) | TGI (SK-MEL-5 melanoma) | TGI (EKVX NSCLC) | TGI (CAKI-1 renal) | TGI (LOX IMVI melanoma) | TGI (IGROV1 ovarian) | TGI (UACC-62 melanoma) | GI50 (SF-539 CNS) | GI50 (UACC-257 melanoma) | GI50 (A498 renal) | GI50 (SK-MEL-5 melanoma) | GI50 (EKVX NSCLC) | GI50 (CAKI-1 renal) | GI50 (LOX IMVI melanoma) | GI50 (IGROV1 ovarian) | GI50 (UACC-62 melanoma) | GI50 (PC-3 prostate) | TGI (PC-3 prostate) |
| --- | --- | --- | --- | --- | --- | --- | --- | --- | --- | --- | --- | --- | --- | --- | --- | --- | --- | --- | --- | --- |
| O=C(CC(=O)C1CCOC1=O)C(=O)Nc1cccc(Cl)c1 (configuration not stated) | > 100 µM | > 100 µM | > 100 µM | > 100 µM | > 100 µM | > 100 µM | > 100 µM | > 100 µM | > 100 µM |  |  |  |  |  |  |  |  |  |  |  |
| Nc1c(-c2ccccc2-c2c(N)[n+]([O-])c3ccccc3[n+]2[O-])[n+]([O-])c2ccccc2[n+]1[O-] | 71.7 µM | 35.2 µM | 71.4 µM | 31 µM | 57.1 µM | > 100 µM | > 100 µM |  | 26.5 µM |  |  |  |  |  |  |  |  |  |  |  |
| COc1cc(/C=C2\[C@H]3c4c(c(OC)c(C)c(OC)c4OC)CC(C(=O)N2Cc2ccccc2)N3C)c(OC)c(C)c1OC | 33.4 µM | 39.6 µM | 50.1 µM | 33 µM | 67.6 µM | 73.6 µM | 33.4 µM | 51.6 µM | 30.4 µM |  |  |  |  |  |  |  |  |  |  |  |
| CCOC(=O)NC(=O)c1cn(C(CC)COC(=O)NCCCCCCNC(=O)OCC(CC)n2cc(C(=O)NC(=O)OCC)c(=O)[nH]c2=O)c(=O)[nH]c1=O (configuration not stated) |  | > 100 µM | > 100 µM | > 100 µM | > 100 µM | > 100 µM | > 100 µM | > 100 µM | > 100 µM |  |  |  |  |  |  |  |  |  |  |  |
| Nc1ccccc1C(=O)/C=C/c1c(O)ccc2ccccc12 | > 100 µM | > 100 µM | > 100 µM | > 100 µM | > 100 µM | > 100 µM | 44.9 µM | > 100 µM | > 100 µM |  |  |  |  |  |  |  |  |  |  |  |
| CC(C)CCC[C@@H](C)C1CCC2[C@@H]3CC=C4C[C@@H](C(=O)NCCN(C)C)CC[C@]4(C)C3CC[C@@]21C (some centres not stated) | 46 µM | 77.1 µM | > 100 µM |  | > 100 µM | > 100 µM | > 100 µM | > 100 µM | > 100 µM |  |  |  |  |  |  |  |  |  |  |  |
| COc1c(C)n(CCO)ccc1=O |  | > 100 µM | > 100 µM | > 100 µM | > 100 µM | > 100 µM | > 100 µM |  | > 100 µM |  |  |  |  |  |  |  |  |  |  |  |
| O=C1CCCN1c1ccccc1I(=O)=O | > 100 µM | > 100 µM | > 100 µM | > 100 µM | > 100 µM | > 100 µM | > 100 µM | > 100 µM | > 100 µM | > 100 µM | > 100 µM | > 100 µM | > 100 µM | > 100 µM | > 100 µM | > 100 µM | > 100 µM | > 100 µM |  |  |
| Nc1nc(-c2ccc(Cl)c([N+](=O)[O-])c2)cs1 | > 100 µM | > 100 µM | 92.1 µM | > 100 µM | > 100 µM | > 100 µM | > 100 µM | > 100 µM | > 100 µM |  |  |  |  |  |  |  |  |  |  |  |
| CC(C)(C)[Si](C)(C)OC1[C@@H](CNC(=O)NC(=O)CCl)O[C@@H](n2cnc3c(N)ncnc32)[C@H]1O[Si](C)(C)C(C)(C)C (some centres not stated) | 1.67 µM | 6.93 µM | 12.8 µM | 1.6 µM |  | 3.89 µM | 0.382 µM | 0.441 µM | 1.74 µM | 0.944 µM | 2.65 µM | 6.21 µM | 0.862 µM |  | 1.33 µM | 0.148 µM | 0.154 µM | 0.877 µM | 0.942 µM | 2.05 µM |
| Cc1ccc(C)c(N2C/C(=N\NC(=O)CC#N)C(c3nc4ccccc4s3)C(=O)C2=O)c1 (configuration not stated) |  | > 100 µM | > 100 µM | > 100 µM | > 100 µM | > 100 µM |  | > 100 µM | > 100 µM |  |  |  |  |  |  |  |  |  |  |  |
| COc1ccc(-c2nc(-c3cc(OC)cc(OC)c3)[nH]c2-c2ccc(OC)cc2)cc1 | > 100 µM | > 100 µM | > 100 µM | 3.7 µM |  | > 100 µM |  | > 100 µM | > 100 µM | > 100 µM | 23.8 µM | > 100 µM | 1.85 µM |  | 6.24 µM |  | > 100 µM | 4.75 µM | 4 µM | > 100 µM |
| CC(C(=O)c1ccc(Cl)cc1)/C(=N/NC(=O)NN)C(=O)Nc1cccc(C(F)(F)F)c1 (configuration not stated) | > 100 µM | > 100 µM | > 100 µM | > 100 µM | > 100 µM | > 100 µM | > 100 µM | > 100 µM | > 100 µM |  |  |  |  |  |  |  |  |  |  |  |
| Cc1[nH]c2ccccc2c1C1Cc2ccccc2N1C(=O)C#Cc1ccc([N+](=O)[O-])cc1 (configuration not stated) | > 100 µM | > 100 µM | > 100 µM |  | > 100 µM |  | > 100 µM | > 100 µM | > 100 µM |  |  |  |  |  |  |  |  |  |  |  |
| Cn1c(=O)nc2n(-c3cc(C(F)(F)F)cc(C(F)(F)F)c3)c3ccccc3nc-2c1=O | > 100 µM | > 100 µM | > 100 µM | 54.4 µM | > 100 µM | > 100 µM | > 100 µM | > 100 µM |  |  |  |  |  |  |  |  |  |  |  |  |
| COC(=O)/C(=N/O)C(C(=O)C=C(C)C)C(=O)C(=O)Nc1nc2ccc([N+](=O)[O-])cc2s1 (configuration not stated) | 78.3 µM | > 100 µM | 31 µM | > 100 µM | 57.8 µM | 97 µM | 93.1 µM | > 100 µM | > 100 µM |  |  |  |  |  |  |  |  |  |  |  |
| COC(=O)C(=O)C(C(C)=O)C(=O)NCc1ccc(OC)c(OC)c1 (configuration not stated) | > 100 µM | > 100 µM | > 100 µM | > 100 µM | > 100 µM | > 100 µM | > 100 µM | > 100 µM | > 100 µM |  |  |  |  |  |  |  |  |  |  |  |
| COc1cccc(/C=N/[N-]C(=O)c2ccncc2)c1[O-].COc1cccc(/C=N/[N-]C(=O)c2ccncc2)c1[O-].[O]=[U](=[O])([OH2+])[OH2+] | > 42.8 µM | > 54.4 µM | 47.7 µM | > 100 µM | > 100 µM | 22.1 µM | > 100 µM | > 90.4 µM | 19.4 µM | 4.27 µM | 4.73 µM | 21.5 µM | 11.6 µM | 2.86 µM | 3.91 µM | 4.94 µM | 9.59 µM | 3.66 µM |  |  |
| CCC1CN2CCc3cc(OC)c(OC)cc3C2CC1CC1c2cc(OC)c(OC)cc2CCN1C(=O)C1CCCN1 (configuration not stated) | 37.8 µM | 41 µM | 56.6 µM | 31.3 µM | > 100 µM | > 100 µM | 72.4 µM | 71.7 µM |  |  |  |  |  |  |  |  |  |  |  |  |
| CC(C)c1[nH]nc2c1N=C(c1ccccc1Cl)c1cc([N+](=O)[O-])ccc1N2 | > 22 µM | > 25 µM | 9.37 µM | 16.2 µM |  | > 13.7 µM | > 17.5 µM | 24.4 µM | > 23.5 µM | 7.27 µM | 10.1 µM | 4.53 µM | 5.33 µM |  | 2.53 µM | 5 µM | 9.46 µM | 4.18 µM | 6.7 µM | > 25 µM |

Source: PubChem BioAssay (NCI)
